Earlier results in US20060051384A1, “Antiseptic compositions and methods of use” (priority 2004, published 2006).

Tested on: methicillin resistant staphylococcus aureus

Question: For povidone-iodine, which “decrease of activity on addition of nasal secretions” value is on record?
Answer: 80-90 wt %
